Test results reported in patent US4923813A, “Monoclonal antibody-based immunoassay for cyclic DNA adducts resulting from exposure to crotonaldehyde or acrolein” (American Health Foundation, priority 1988, dated 1990).

Experiments:
[1] = molecular target: monoclonal antibody CA1; test: competitive ELISA, inhibition of binding of antibody CA1 to structure 1a,b-KLH conjugate; set-up: species or system mouse; conditions: for pmol of compound needed for 50% inhibition of binding in the competitive ELISA, CA1: plate coated with structure 1a,b-KLH conjugate
From the text: (§1) Screening for Antibody Production. In order to screen the fused cells for the production of antibody specific for the cyclic deoxyguanosine adducts, an enzyme-linked immunosorbent assay ("ELISA") may be used. ELISA links soluble antigens to insoluble antibodies or soluble antibodies to solid phase antigens in a manner that allows both immunolgical and enzymatic activity to be retained.
(§2) ELISA techniques for antigen or antibody quantification are well-known to the art. By way of example, wells of a 96-well polystyrene ELISA plate may be coated with 10 ng of structure a, b-KLH conjugate, diluted in Phosphate buffered saline (PBS), for 1 h at room temperature. The wells may be washed twice with PBS containing 0.1% Tween 20 and twice with distilled H2 O. From this point all reagents may be diluted in PBS containing 0.1% bovine serum albumin ("BSA"). Wells are filled with 50 μl of PBS-BSA followed by 50 μl of culture supernatant and incubated at room temperature for 1 h. For competitive ELISA, adduct standards or test samples are mixed with the monoclonal antibody and added to the well. The wells are washed and 100 μl of alkaline phosphatase-labeled goat anti-mouse 1 gG antibody (Kirkegaard & Perry Laboratories, Inc., Gaithersburg, Md.) are added to each well and incubated at room temperature for 1 h. After washing, 100 μl of substrate solution (1 mg/ml of p-nitrophenylphosphate in 1M diethanolamine buffer, pH 9.8) are added to each well and incubated at room temperature for 30 min. […] In quantitative experiments the concentration of unknown samples may be determined by comparison to a standard curve relating the log of the inhibitor concentration to the logit of the percentage of inhibition [formula]
(§3) Using the above-identified procedures, a single mouse was boosted with the structure 1a,b-KLH conjugate for 4 consecutive days and the fusion was performed on the fifth day.

[2] = test system: monoclonal antibody CA2; test: competitive ELISA, inhibition of binding of antibody CA2 to structure 1a,b-KLH conjugate; set-up: species or system mouse; conditions: for pmol of compound needed for 50% inhibition of binding in the competitive ELISA, CA2: plate coated with structure 1a,b-KLH conjugate
From the text: as §1, §2, §3

[3] = molecular target: monoclonal antibody CA3; test: competitive ELISA, inhibition of binding of antibody CA3 to structure 1a,b-KLH conjugate; set-up: species or system mouse; conditions: for pmol of compound needed for 50% inhibition of binding in the competitive ELISA, CA3: plate coated with structure 1a,b-KLH conjugate
From the text: as §1, §2, §3

[4] = molecular target: monoclonal antibody CA4; test: competitive ELISA, inhibition of binding of antibody CA4 to structure 1a,b-KLH conjugate; set-up: species or system mouse; conditions: plate coated with structure 1a,b-KLH conjugate
From the text: as §1, §2, §3

[5] = test system: the four antibodies (CA1, CA2, CA3, CA4); test: competitive ELISA, reactivity of the four antibodies; assay type: binding, mouse; conditions: all four antibodies; O6-methyldeoxyguanosine: with the exception of CA3
From the text: as §1, §2, §3

Row | Structure (SMILES) | pmol of compound needed for 50% inhibition of binding in the competitive ELISA, CA1 [1] | specificity of antibody CA2 [2] | pmol of compound needed for 50% inhibition of binding in the competitive ELISA, CA2 [2] | pmol of compound needed for 50% inhibition of binding in the competitive ELISA, CA3 [3] | pmol of compound needed for 50% inhibition of binding in the competitive ELISA, CA4 [4] | affinity of antibody CA1 [1] | reactivity / cross-reactivity with the four antibodies [5] | affinity / reactivity of antibody CA3 [3]
1 | Cc1cn([C@H]2C[C@H](O)[C@@H](CO)O2)c(=O)[nH]c1=O [Thymidine, reference compound] | > 100,000 pmol | – | > 100,000 pmol | > 100,000 pmol | > 100,000 pmol | – | – | –
2 | CC1CC(O)n2c(nc3[nH]cnc3c2=O)N1 (stereo not drawn) [1,base] | 8.6 pmol | – | 69 pmol | 143 pmol | 30 pmol | – | Cross-reactivity | –
3 | Nc1ccn([C@H]2C[C@H](O)[C@@H](CO)O2)c(=O)n1 [Deoxycytosine, reference compound] | > 110,000 pmol | – | > 110,000 pmol | > 110,000 pmol | > 110,000 pmol | – | – | –
4 | Nc1nc2c(ncn2[C@H]2C[C@H](O)[C@@H](CO)O2)c(=O)[nH]1 [Deoxyguanosine, reference compound] | 2,564 pmol | – | 698 pmol | 14 pmol | 5,370 pmol | – | significant cross-reactivity | –
5 | COc1nc(N)nc2c1ncn2[C@H]1C[C@H](O)[C@@H](CO)O1 [reference compound] | 56,790 pmol | – | 51,270 pmol | 235 pmol | > 100,000 pmol | – | unreactive | –
6 | Nc1ncnc2c1ncn2[C@H]1C[C@H](O)[C@@H](CO)O1 [Deoxyadenosine, reference compound] | > 80,000 pmol | – | > 80,000 pmol | > 80,000 pmol | > 80,000 pmol | – | – | –

More lines, main results first:

Row | pmol of compound needed for 50% inhibition of binding in the competitive ELISA, CA1 [1] | specificity of antibody CA2 [2] | pmol of compound needed for 50% inhibition of binding in the competitive ELISA, CA2 [2] | pmol of compound needed for 50% inhibition of binding in the competitive ELISA, CA3 [3] | pmol of compound needed for 50% inhibition of binding in the competitive ELISA, CA4 [4] | affinity of antibody CA1 [1] | Structure (SMILES) | reactivity / cross-reactivity with the four antibodies [5] | affinity / reactivity of antibody CA3 [3]
7 | 0.8 pmol | most specific | 0.2 pmol | 0.9 pmol | 7.9 pmol | – | O=c1c2ncn([C@H]3C[C@H](O)[C@@H](CO)O3)c2nc2n1C(O)CCN2 (stereo partly drawn) [1d] | Cross-reactivity | –
8 | 0.2 pmol | – | 0.4 pmol | 10 pmol | 0.9 pmol | high apparent affinity | CC1CC(O)n2c(nc3c(ncn3[C@H]3C[C@H](O)[C@@H](CO)O3)c2=O)N1 (mixture of isomers) [1b, 8R, 6R- and 8S, 6S-3-(2-deoxy-3-β-erythro-pentofuranosyl) 5,6,7,8-tetrahydro-8-hydroxy-6-methylpyrimido(1,2-a)purine-10(3H)one] | strongest | –
9 | 12.8 pmol | – | 17 pmol | 0.2 pmol | 10 pmol | lower affinity | CC1CC(O)n2c(nc3c(ncn3[C@H]3C[C@H](O)[C@@H](CO)O3)c2=O)N1 (mixture of isomers) [1a, 8R, 6R- and 8S, 6S-3-(2-deoxy-3-β-erythro-pentofuranosyl) 5,6,7,8-tetrahydro-8-hydroxy-6-methylpyrimido(1,2-a)purine-10(3H)one] | strongest | highest affinity of the four antibodies
10 | 90 pmol | – | 9 pmol | 5 pmol | 112 pmol | – | O=c1c2ncn([C@H]3C[C@H](O)[C@@H](CO)O3)c2nc2n1CCC(O)N2 (stereo partly drawn) [1c] | Cross-reactivity | less reactive than the above three molecules
11 | 113 pmol | – | 156 pmol | 22 pmol | 41,470 pmol | – | O=c1c2ncn([C@H]3C[C@H](O)[C@@H](CO)O3)c2nc2n1C(O)C(O)N2 (stereo partly drawn) [1e] | Cross-reactivity | –
